± gives the standard deviation of the averaged measurements.
Experiments:
Settings in all cases: exposure: 5-72 hpf
[1] = system: Danio rerio embryo (fli1:egfp); test: heart rate at 72 hpf (beats per minute); higher = faster heart rate
Procedure: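 fli1:egfp zebrafish embryos exposed 5-72 hpf to chemical (0.05-50 µM, 0.1% DMSO) in 384-well plates; heart rate at 72 hpf quantified from stream acquisitions by semi-automated MetaXpress journal (peak counting); only embryos in concentrations passing survival/body-length criteria analyzed.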

[2] = system: Danio rerio embryo (fli1:egfp); test: body length at 72 hpf (µm); higher = longer body (less growth inhibition)
Procedure: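 Transgenic fli1:egfp zebrafish embryos (one per well, 384-well plate) exposed statically from 5 to 72 hpf at 28 °C to chemical (0.05-50 µM, 0.1% DMSO); at 72 hpf anesthetized and imaged on ImageXpress; body length of live, hatched, correctly oriented embryos measured by automated MetaXpress journal. Dead/unhatched/misoriented embryos have no value.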

[3] = system: Danio rerio embryo (fli1:egfp); test: pericardial area at 72 hpf (image area units (not stated)); higher = larger pericardial area (edema)
Procedure: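 fli1:egfp zebrafish embryos exposed 5-72 hpf to chemical (0.05-50 µM, 0.1% DMSO); pericardial area at 72 hpf measured by semi-automated MetaXpress journal (increase indicates edema).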

[4] = system: Danio rerio embryo (fli1:egfp); test: arterial (dorsal aorta) circulation score at 72 hpf (normalized DA-Max (arbitrary units)); higher = more circulation
Procedure: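 fli1:egfp zebrafish embryos exposed 5-72 hpf to chemical (0.05-50 µM, 0.1% DMSO); arterial circulation at 72 hpf quantified from stream acquisitions of the dorsal aorta by FFT-based analysis (DA-Max, normalized dorsal aorta signal); only concentrations passing survival/body-length criteria analyzed.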

[5] = system: Danio rerio embryo (fli1:egfp); test: intersegmental vessel area normalized to body length at 72 hpf (ISV area / body length (normalized units)); higher = more vessel area
Procedure: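 fli1:egfp zebrafish embryos exposed 5-72 hpf to chemical (0.05-50 µM, 0.1% DMSO); intersegmental vessel (ISV) eGFP area quantified by MetaXpress journal at 72 hpf and normalized to body length.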

C=CCOC(=O)C(C)(C)OC(=O)c1cc(-n2c(=O)cc(C(F)(F)F)n(C)c2=O)ccc1Cl [Butafenacil]
Settings	arterial, [4]	body length at 72 hpf, [2]	heart rate at 72 hpf, [1]	intersegmental vessel area normalized, [5]	pericardial area at 72 hpf, [3]
0.05 µM	11.5 ± 5.8	2960 ± 130	182 ± 17	72.8 ± 25	15900 ± 4600
0.098 µM	11.8 ± 4.2	2990 ± 130	180 ± 14	61.6 ± 25	14800 ± 3900
0.195 µM	10.1 ± 4	2960 ± 260	191 ± 24	70.6 ± 21	16200 ± 3400
0.39 µM	7.84 ± 2.8	3000 ± 120	185 ± 24	68.9 ± 18	15700 ± 4800
0.78 µM	5.12 ± 1.8	2970 ± 230	172 ± 14	55.9 ± 20	18900 ± 5500
1.56 µM	5.32 ± 3	2970 ± 110	168 ± 17	61.2 ± 22	18800 ± 5100
3.125 µM	5.76 ± 2.2	2980 ± 110	175 ± 22	69.3 ± 23	18700 ± 5900
6.25 µM	4.56 ± 2	3010 ± 110	184 ± 54	72.8 ± 25	28100 ± 12000
12.5 µM	3.81 ± 1.2	2860 ± 200	163 ± 27	81.2 ± 22	36500 ± 14000

CCOc1cc(Oc2ccc(C(F)(F)F)cc2Cl)ccc1[N+](=O)[O-] [Oxyfluorfen]
Settings	arterial, [4]	body length at 72 hpf, [2]	heart rate at 72 hpf, [1]	intersegmental vessel area normalized, [5]	pericardial area at 72 hpf, [3]
0.0244 µM	12.2 ± 3.4	3050 ± 87	183 ± 20	86.8 ± 20	14300 ± 3900
0.05 µM	15 ± 5.9	3020 ± 120	178 ± 19	86.7 ± 19	14500 ± 3800
0.098 µM	13.5 ± 4.5	2990 ± 110	180 ± 19	88.8 ± 21	14900 ± 3100
0.195 µM	15.8 ± 5.5	2990 ± 110	187 ± 16	79 ± 22	14500 ± 4300
0.39 µM	14.3 ± 6.2	2990 ± 93	185 ± 18	95.7 ± 16	15500 ± 4400
0.78 µM	13.4 ± 5.1	3000 ± 120	192 ± 19	90.7 ± 20	13400 ± 4100
1.56 µM	14.4 ± 4.6	2850 ± 120	190 ± 13	89.4 ± 21	13400 ± 2700
3.125 µM	12 ± 6.7	2980 ± 160	193 ± 18	87.2 ± 22	16200 ± 4000
6.25 µM	10.5 ± 4.5	2960 ± 150	194 ± 13	100 ± 18	15900 ± 5100
12.5 µM	7.87 ± 4.7	2840 ± 130	192 ± 19	90.5 ± 22	15300 ± 5000
25 µM	–	2660 ± 150	–	–	–

CC1(C)C(C=C(Cl)Cl)C1C(=O)OC(C#N)c1ccc(F)c(Oc2ccccc2)c1 (configuration not stated) [Cyfluthrin]
Settings	arterial, [4]	body length at 72 hpf, [2]	heart rate at 72 hpf, [1]	intersegmental vessel area normalized, [5]	pericardial area at 72 hpf, [3]
0.05 µM	14.9 ± 4.7	3010 ± 110	185 ± 14	80.1 ± 26	16100 ± 5200
0.098 µM	14.7 ± 4.3	3040 ± 91	187 ± 13	71.9 ± 21	14000 ± 3700
0.195 µM	16.3 ± 7.1	3030 ± 130	188 ± 15	80.3 ± 29	12900 ± 3400
0.39 µM	12.4 ± 4.2	3070 ± 120	193 ± 17	83.3 ± 28	13300 ± 4200
0.78 µM	9.66 ± 3.1	3020 ± 130	202 ± 17	71.9 ± 25	14900 ± 3200
1.56 µM	13 ± 5.4	2900 ± 150	198 ± 18	78.4 ± 25	16800 ± 3500
3.125 µM	14.7 ± 5.8	2790 ± 130	190 ± 14	92.3 ± 18	16900 ± 5300
6.25 µM	–	2620 ± 90	–	–	–

CCOC(=O)COc1cc(-n2ncc(C(F)(F)F)c(C)c2=O)c(F)cc1Cl [Flufenpyr-ethyl]
Settings	arterial, [4]	body length at 72 hpf, [2]	heart rate at 72 hpf, [1]	intersegmental vessel area normalized, [5]	pericardial area at 72 hpf, [3]
0.05 µM	8.79 ± 3.1	2990 ± 140	169 ± 19	84.4 ± 20	12800 ± 3300
0.098 µM	9.74 ± 4.1	3000 ± 140	178 ± 16	70.8 ± 19	13000 ± 3100
0.195 µM	9.58 ± 3.5	3040 ± 150	181 ± 14	75.2 ± 23	12300 ± 2600
0.39 µM	8.94 ± 2.7	3080 ± 110	180 ± 16	77.1 ± 17	13600 ± 4400
0.78 µM	9.32 ± 3.2	3020 ± 86	186 ± 14	74.8 ± 21	13300 ± 2900
1.56 µM	8.81 ± 3.1	3020 ± 140	182 ± 14	75.8 ± 20	13600 ± 3500
3.125 µM	6.7 ± 3.2	2950 ± 100	181 ± 13	82.9 ± 19	15300 ± 5400
6.25 µM	5.21 ± 2.8	2810 ± 120	166 ± 26	83.5 ± 19	25900 ± 17000

From the supplement of paper PMC4121296
